Values after ≈ are worked out from the molar mass of the structure shown. Read-outs that look alike come from different tables or passages of the source.
Tests used:
[1] = Mouse liver microsomal intrinsic clearance; format: in vitro ADME; conditions: for Cli (mouse liver microsomal intrinsic clearance): mouse liver microsomes; for Cli (mouse, ml/min/g): supplement sheet
Method: (§1) These assays were conducted as previously described.[23]

[2] = Chrom Log D pH7.4; format: physicochemical; conditions: for ChromLogDpH7.4: pH 7.4; for ChromLogD: supplement sheet
Method: This assay was conducted as previously described.[11]

[3] = Kinetic aqueous solubility; format: physicochemical; conditions: kinetic; read-out: Aq Solubility (kinetic aqueous solubility)
Method: as §1

[4] = test system: L. donovani amastigotes; test: Intramacrophage L. donovani assay (Ld InMac); format: cell-based, Leishmania donovani; conditions: for Ld InMac (pEC50) / EC50: L. donovani amastigotes in THP-1 cells, 96 h compound exposure; for EC50 / IC50: Leishmania donovani; for EC50: THP-1, 96 h, read-out: Ld InMac (pEC50) (converted); for IC50: read-out: LdInMac pIC50 (converted); for loss in potency compared to 1: Ld InMac
Method: (§2) This assay was conducted as previously described,[8] except for compound exposure time, which was 96 h instead of 72 h.

[5] = test system: THP-1 cells; test: THP-1 host cell toxicity readout of the intramacrophage assay; format: cell-based, human; conditions: for THP-1 (pEC50): human THP-1 host cells; for IC50: Homo sapiens
Method: as §2

[6] = THP-1, supplement sheet, read-out: THP1 pIC50 (converted)

Compound	Cli (mouse liver microsomal intrinsic clearance) [1]	Cli (mouse, ml/min/g) [1]	solubility kinetic [3]	LdInMac pIC50 ([4]; supplement sheet)	THP-1 (pEC50) [5]	THP1 pIC50 ([5]; supplement sheet)	IC50 ([4]; supplement sheet)	IC50 [5, 6]	other results
2-(8-Hydroxy-7-(3-methyl-1H-1,2,4-triazol-5-yl)-1,6-naphthyridin-5-yl)-1,2-thiazinane 1,1-dioxide [Compound 13]	0.6 mL/min/g	0.6 mL/min/g	250 µM	<4.3	<4.3	<4.3			ChromLogDpH7.4 [2]: 1.5; ChromLogD [2]: 1.5
5-(Dimethylamino)-7-(3-methyl-1H-1,2,4-triazol-5-yl)-1,6-naphthyridin-8-ol [Compound 9]	14 mL/min/g	14 mL/min/g	>250 µM	4.8	<4.3	<4.3			ChromLogDpH7.4 [2]: -0.6; ChromLogD [2]: -0.6
7-(3-Methyl-1H-1,2,4-triazol-5-yl)-5-(2-(trifluoromethyl)phenyl)-1,6-naphthyridin-8-ol [Compound 15]	1.4 mL/min/g	1.4 mL/min/g	>250 µM	7	<4.3	<4.3			ChromLogDpH7.4 [2]: 4.3; ChromLogD [2]: 4.3; Ld InMac (pEC50) [4]: 7.0
Oc1c(-c2nnc(Cc3ccc(Cl)cc3)[nH]2)ncc2cccnc12 [Compound 1]							0.316 µM	31.6 µM	EC50 [4]: 0.316 µM; selectivity over the human THP-1 cell line ([4]; parasite vs THP-1 pEC50): ~100 fold
Oc1c(-c2nnc(Cc3ccc(F)cc3)[nH]2)ncc2cccnc12 [Compound 2]							2.51 µM	39.8 µM	loss in potency compared to 1 [4]: ~10 fold
Oc1c(-c2nc(C(O)c3ccccc3)n[nH]2)ncc2cccnc12 (stereo not shown) [Compound 3, 7-(3-(Hydroxy(phenyl)methyl)-1H-1,2,4-triazol-5-yl)-1,6-naphthyridin-8-ol]							5.01 µM	> 50.1 µM	loss in potency compared to 1 [4]: ~10 fold
Cc1n[nH]c(-c2ncc3cccnc3c2O)n1 [Compound 4, 7-(3-Methyl-1H-1,2,4-triazol-5-yl)-1,6-naphthyridin-8-ol]							> 50.1 µM	> 50.1 µM	
Oc1c(-c2nc(CN3CCOCC3)n[nH]2)ncc2cccnc12 [Compound 5, 7-(3-(Morpholinomethyl)-1H-1,2,4-triazol-5-yl)-1,6-naphthyridin-8-ol]							31.6 µM	> 50.1 µM	EC50 [4]: 31.6 µM
O=C1CCCN1Cc1n[nH]c(-c2ncc3cccnc3c2O)n1 [Compound 6, 1-((5-(8-Hydroxy-1,6-naphthyridin-7-yl)-1H-1,2,4-triazol-3-yl)methyl)pyrrolidin-2-one]	<0.5 mL/min/g	<0.5 mL/min/g					> 50.1 µM	> 50.1 µM	
O=C(NCc1ccc(Cl)cc1)c1ncc2cccnc2c1O [Compound 7, N-(4-Chlorobenzyl)-8-hydroxy-1,6-naphthyridine-7-carboxamide]							0.501 µM	> 50.1 µM	EC50 [4]: 0.501 µM
CNc1nc(-c2nc(C)n[nH]2)c(O)c2ncccc12 [Compound 8, 7-(3-Methyl-1H-1,2,4-triazol-5-yl)-5-(methylamino)-1,6-naphthyridin-8-ol]	3.1 mL/min/g	3.1 mL/min/g	>250 µM	<4.3	<4.3	<4.3			ChromLogDpH7.4 [2]: -0.2; ChromLogD [2]: -0.2
Cc1n[nH]c(-c2nc(NCc3ccc(Cl)cc3)c3cccnc3c2O)n1 [Compound 10, 5-((4-Chlorobenzyl)amino)-7-(3-methyl-1H-1,2,4-triazol-5-yl)-1,6-naphthyridin-8-ol]	3.4 mL/min/g	3.4 mL/min/g	219 µM (≈ 80.3 µg/mL)	5.8	<4.3	<4.3			ChromLogDpH7.4 [2]: 4.4; ChromLogD [2]: 4.4
Cc1n[nH]c(-c2nc(N3CCOCC3)c3cccnc3c2O)n1 [Compound 11, 7-(3-Methyl-1H-1,2,4-triazol-5-yl)-5-morpholino-1,6-naphthyridin-8-ol]	3.1 mL/min/g	3.1 mL/min/g	>250 µM	5	<4.3	<4.3			ChromLogDpH7.4 [2]: 1.8; ChromLogD [2]: 1.8
Cc1n[nH]c(-c2nc(N3CCCC3=O)c3cccnc3c2O)n1 [Compound 12, 1-(8-Hydroxy-7-(3-methyl-1H-1,2,4-triazol-5-yl)-1,6-naphthyridin-5-yl)pyrrolidin-2-one]	<0.5 mL/min/g	<0.5 mL/min/g	109 µM (≈ 33.8 µg/mL)	<4.3	<4.3	<4.3			
Cc1n[nH]c(-c2nc(-c3ccccc3)c3cccnc3c2O)n1 [Compound 14, 7-(3-Methyl-1H-1,2,4-triazol-5-yl)-5-phenyl-1,6-naphthyridin-8-ol]	9.4 mL/min/g	9.4 mL/min/g	160 µM (≈ 48.5 µg/mL)	5.9	<4.3	<4.3			Ld InMac (pEC50) [4]: 5.9
Cc1n[nH]c(-c2cc3ncccc3c(-c3ccccc3)n2)n1 [Compound 17]							> 50.1 µM	> 50.1 µM	
COc1ccccc1-c1nc(-c2nc(C)n[nH]2)c(OC)c2ncccc12 [Compound 18]							2.51 µM	> 50.1 µM	
COc1ccccc1-c1nc(-c2nnc(C)o2)c(O)c2ncccc12 [Compound 19, 5-(2-Methoxyphenyl)-7-(5-methyl-1,3,4-oxadiazol-2-yl)-1,6-naphthyridin-8-ol]	<0.5 mL/min/g	<0.5 mL/min/g					> 50.1 µM	> 50.1 µM	
O=C(NCc1ccc(Cl)cc1)c1ccc2cccnc2c1O [Compound 20]					toxic to the host THP-1 cells		15.8 µM	6.31 µM	
O=C(NCc1ccc(Cl)cc1)c1ncc2ccccc2c1O [Compound 21]							> 50.1 µM	> 50.1 µM	
COc1ccc(CNC(=O)c2nn(C)c3cccnc3c2=O)cc1 [Compound 23, N-(4-Methoxybenzyl)-1-methyl-4-oxo-1,4-dihydropyrido[3,2-c]pyridazine-3-carboxamide]							> 50.1 µM	> 50.1 µM	
Cc1nnc(C(=O)NC(C)(C)c2nc(C(=O)NCc3ccc(F)cc3)c(O)c(=O)n2C)o1 [Compound 24, Raltegravir, reference compound]									IC50 [4]: > 50.1 µM; IC50 ([5]; THP-1, read-out: THP1 pIC50 (converted)): > 50.1 µM
COc1ccc(CNC(=O)c2ncc3cccnc3c2O)cc1 [Compound 27, 8-Hydroxy-N-(4-methoxybenzyl)-1,6-naphthyridine-7-carboxamide]							0.501 µM	> 50.1 µM	Ld InMac (pEC50) [4]: 6.3; EC50 [4]: < 1 µM
O=C(NCc1ccc(F)cc1)c1nc(N2CCCCS2(=O)=O)c2cccnc2c1O [Compound 30, N-(4-Fluorobenzyl)-5-(1,1-dioxido-1,2-thiazinan-2-yl)-8-hydroxy-1,6-naphthyridine-7-carboxamide, reference compound]	2.0 mL/min/g	2 mL/min/g	> 250 µM	<4.3	4.5	4.5			
(R)-N-(1-(4-Fluorophenyl)ethyl)-1-methyl-4-oxo-1,4-dihydro-1,5-naphthyridine-3-carboxamide [Compound 22]	0.7 mL/min/g	0.7 mL/min/g	>250 µM	<4.3	<4.3	<4.3			
N-(4-Chlorobenzyl)-8-hydroxy-5-morpholino-1,6-naphthyridine-7-carboxamide [Compound 32]	24 mL/min/g	24 mL/min/g	219 µM	<4.3	<4.3	<4.3			Ld InMac (pEC50) [4]: <4.3
N-(Cyclopropylmethyl)-8-hydroxy-1,6-naphthyridine-7-carboxamide [Compound 29]	13 mL/min/g	13 mL/min/g		5.9	<4.3	<4.3			ChromLogDpH7.4 [2]: 3.3; ChromLogD [2]: 3.3; Ld InMac (pEC50) [4]: 5.9
N-(Cyclopropylmethyl)-8-hydroxy-5-(2-methoxyphenyl)-1,6-naphthyridine-7-carboxamide [Compound 33]	8 mL/min/g	8 mL/min/g	>250 µM	5.7	<4.3	<4.3			Ld InMac (pEC50) [4]: 5.7

— publication PMC7748245, “Identification and Optimization of a Series of 8-Hydroxy Naphthyridines with Potent In Vitro Antileishmanial Activity: Initial SAR and Assessment of In Vivo Activity” (Journal of Medicinal Chemistry, 2020)
